Measured values reported in article PMC5848165 (Toxins, 2018).
“Also recorded” adds a separate entry of the source. Where two headings read alike, the source gives them in different places. Residues, ends and D or L forms follow the SMILES beside them.

Experiments:
[1] = tested on: Nav1.5; assay: Whole-cell patch clamp, WT Nav1.5 in HEK293 cells; format: cell-based, rat; settings: 1 µM, −10 mV from −80 mV
Excerpt: Nine sodium channel subtypes have been identified and classified as TTX-S (Nav1.1–Nav1.4, Nav1.6, and Nav1.7) or TTX-R types (Nav1.5, Nav1.8, and Nav1.9). […] However, the subtype selectivity of JZTX-34 on the subtype of sodium channel is still unknown. In this work, effects of JZTX-34 on VGSC subtypes (Nav1.1–Nav1.8) were examined. Nav1.1–Nav1.7 were transfected into HEK293 cells and Nav1.8 currents were expressed in ND cells. Inward sodium currents were elicited by a 50 ms depolarizing potential to −10 mV from a holding potential of −80 mV every 5 s. […] No effects on other sodium channel subtypes were found (Nav1.1, Nav1.2, Nav1.4–Nav1.6, and Nav1.8) (Figure S2). […]
(§1) The HEK293T cells were maintained in standard culture conditions (5% CO2 and 37 °C). […] After culturing for 36–72 h, cells with obvious green fluorescence were selected for sodium currents recordings the internal solution for sodium currents recording that contained (in mM) 140 CsF, 5 NaCl, 10 HEPES, 3 Na2-ATP, and 10 EGTA. […]
(§2) Sodium currents were recorded from DRG, HEK293, and ND cells by the whole-cell patch-clamp technique at 25 °C. […] Experiments date were acquired from whole-cell Axon 700B patch clamp amplifier (Molecular Devices, Sunnyvale, CA, USA) and analyzed by the program Clampfit10.0 (Molecular Devices, Sunnyvale, CA, USA) and Sigmaplot. […]

[2] = tested on: Nav1.6; assay: Whole-cell patch clamp, Nav1.6 in HEK293 cells; format: cell-based; settings: 1 µM, −10 mV from −80 mV
Excerpt: Nine sodium channel subtypes have been identified and classified as TTX-S (Nav1.1–Nav1.4, Nav1.6, and Nav1.7) or TTX-R types (Nav1.5, Nav1.8, and Nav1.9). […] However, the subtype selectivity of JZTX-34 on the subtype of sodium channel is still unknown. In this work, effects of JZTX-34 on VGSC subtypes (Nav1.1–Nav1.8) were examined. Nav1.1–Nav1.7 were transfected into HEK293 cells and Nav1.8 currents were expressed in ND cells. Inward sodium currents were elicited by a 50 ms depolarizing potential to −10 mV from a holding potential of −80 mV every 5 s. […] No effects on other sodium channel subtypes were found (Nav1.1, Nav1.2, Nav1.4–Nav1.6, and Nav1.8) (Figure S2).
as §1, with “°C). Then, 10% fetal bovine serum was added to Dulbecco’s modified Eagle’s medium.” for “°C).”
as §2

[3] = target: T1, Nav1.7 D816R (Homo sapiens, UniProt Q15858, D827R); assay: Whole-cell patch clamp, Nav1.7 mutant D816R in HEK293 cells; format: cell-based
T1 construct: expressed in transfected cells; host or cells: HEK293 (HEK293T) cells, transient
Excerpt: We next investigated the critical residues in DIIS3-S4 linker that determined the sensitivity of Nav1.7 to JZTX-34. An acidic residue, D816, is present in the DIIS3-S4 linker of Nav1.7, while the corresponding residue in Nav1.5 is an alkaline amino acid, R800. To determine whether the acidic residue D816 occupies an important role in toxin binding, we constructed two mutants: D816R of Nav1.7 and R800D of Nav1.5. One µM of JZTX-34 inhibited 54.3 ± 5.2% of WT Nav1.7 currents (Figure 4A), but only 16.8 ± 4.6% currents of D816R were inhibited at the same concentration (Figure 4B). […] To further confirm the key role of D816R in blocking Nav1.7 by JZTX-34, we examined the effect of JZTX-34 on Nav1.5 mutant R800D. […] Thus, the acidic residue D816 in DIIS3-S4 linker may be critical for the sensitivity of Nav1.7 to JZTX-34.
Figure 4 Effects of JZTX-34 on mutants of Nav1.7 and Nav1.5. (A) Amino acid sequence alignment of DII S3-S4 linker of Nav1.5 and Nav1.7 and schematic diagram of sodium channel α subunit. The positions of amino acids of interest are shaded in bold black. […]
as §1, §2
Data from Axon 700B patch clamp were analyzed by Clampfit10.0 (Molecular Devices, Sunnyvale, CA, USA). […] The G-V curves were obtained by calculating the conductance (G) at each voltage (V) using the equation G = I/(V1 − Vrev), with Vrev being the reversal potential determined for each cell individually. […]

[4] = tested on: acetic acid-induced writhing response in mice; format: in vivo, mouse (Kunming); settings: counted 30 min after 0.8% acetic acid i.p., control 61, n = 6

T1 sequence (Q15858 other isoform, or with tags, fused parts or gaps D816R): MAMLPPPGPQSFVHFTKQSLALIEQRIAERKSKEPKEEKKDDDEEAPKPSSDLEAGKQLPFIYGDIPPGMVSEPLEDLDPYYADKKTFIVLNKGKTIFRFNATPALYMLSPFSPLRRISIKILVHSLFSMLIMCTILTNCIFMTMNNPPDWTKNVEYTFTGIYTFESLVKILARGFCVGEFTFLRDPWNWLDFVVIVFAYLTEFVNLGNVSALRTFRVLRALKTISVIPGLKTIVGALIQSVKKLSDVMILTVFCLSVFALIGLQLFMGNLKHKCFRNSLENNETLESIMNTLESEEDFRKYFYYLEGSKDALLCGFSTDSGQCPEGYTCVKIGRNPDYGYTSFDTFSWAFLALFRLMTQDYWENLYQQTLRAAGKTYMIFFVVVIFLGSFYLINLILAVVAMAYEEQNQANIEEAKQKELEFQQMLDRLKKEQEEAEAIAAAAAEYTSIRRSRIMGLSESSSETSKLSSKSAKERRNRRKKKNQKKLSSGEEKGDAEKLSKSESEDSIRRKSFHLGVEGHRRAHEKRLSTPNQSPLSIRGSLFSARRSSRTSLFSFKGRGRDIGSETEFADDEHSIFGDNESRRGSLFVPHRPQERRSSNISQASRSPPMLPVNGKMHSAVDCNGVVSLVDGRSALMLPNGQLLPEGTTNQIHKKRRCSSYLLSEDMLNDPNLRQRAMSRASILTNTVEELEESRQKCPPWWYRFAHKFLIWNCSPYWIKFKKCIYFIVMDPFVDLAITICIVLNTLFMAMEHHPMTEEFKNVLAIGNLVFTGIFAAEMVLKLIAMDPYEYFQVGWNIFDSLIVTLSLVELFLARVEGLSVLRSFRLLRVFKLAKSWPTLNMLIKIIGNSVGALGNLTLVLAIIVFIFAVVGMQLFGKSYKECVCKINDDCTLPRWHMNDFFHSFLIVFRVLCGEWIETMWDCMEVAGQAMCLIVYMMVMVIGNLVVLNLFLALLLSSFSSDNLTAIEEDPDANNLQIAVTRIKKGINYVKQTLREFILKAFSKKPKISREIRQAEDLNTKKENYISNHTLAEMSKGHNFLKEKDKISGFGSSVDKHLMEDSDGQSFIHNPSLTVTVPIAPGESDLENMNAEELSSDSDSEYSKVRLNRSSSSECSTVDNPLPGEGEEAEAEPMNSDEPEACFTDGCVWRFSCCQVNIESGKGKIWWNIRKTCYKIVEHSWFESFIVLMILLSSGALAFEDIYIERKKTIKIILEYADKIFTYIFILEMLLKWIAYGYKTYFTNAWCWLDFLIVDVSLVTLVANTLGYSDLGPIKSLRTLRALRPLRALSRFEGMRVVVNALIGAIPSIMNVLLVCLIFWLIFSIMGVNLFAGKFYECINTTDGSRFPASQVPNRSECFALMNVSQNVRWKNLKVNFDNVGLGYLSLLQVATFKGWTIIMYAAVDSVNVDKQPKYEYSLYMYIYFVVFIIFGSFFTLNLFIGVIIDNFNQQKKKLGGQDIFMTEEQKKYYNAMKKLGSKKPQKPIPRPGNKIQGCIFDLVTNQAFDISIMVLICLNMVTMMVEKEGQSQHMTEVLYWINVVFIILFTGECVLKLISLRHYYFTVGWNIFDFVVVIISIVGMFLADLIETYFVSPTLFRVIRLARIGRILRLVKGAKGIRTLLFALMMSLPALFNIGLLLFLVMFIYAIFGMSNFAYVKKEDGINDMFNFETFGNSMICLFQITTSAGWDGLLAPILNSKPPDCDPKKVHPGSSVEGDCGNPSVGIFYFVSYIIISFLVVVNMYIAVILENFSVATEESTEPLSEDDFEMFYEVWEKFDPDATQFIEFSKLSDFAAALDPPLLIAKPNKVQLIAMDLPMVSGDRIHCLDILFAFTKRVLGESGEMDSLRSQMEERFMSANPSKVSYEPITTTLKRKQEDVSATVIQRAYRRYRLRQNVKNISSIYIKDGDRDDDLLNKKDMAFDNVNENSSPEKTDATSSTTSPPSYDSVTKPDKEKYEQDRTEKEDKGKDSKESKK
T1 sequence (Q07699 19-218, further chain): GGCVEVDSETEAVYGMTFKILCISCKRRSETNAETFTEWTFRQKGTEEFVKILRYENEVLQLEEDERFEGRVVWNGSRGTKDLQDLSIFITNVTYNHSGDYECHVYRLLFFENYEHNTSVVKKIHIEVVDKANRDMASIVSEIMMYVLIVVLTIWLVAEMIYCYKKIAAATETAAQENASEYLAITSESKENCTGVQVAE

## CC(C)C[C@@H]1NC(=O)[C@H](Cc2c[nH]c3ccccc23)NC(=O)[C@H](CCC(=O)O)NC(=O)[C@H](CCCNC(=N)N)NC(=O)[C@@H](NC(=O)[C@H](C)N)CSSC[C@@H]2NC(=O)[C@@H]3CSSC[C@@H](C(=O)N[C@H](C(=O)N[C@@H](Cc4c[nH]c5ccccc45)C(=O)N[C@@H](CC(=O)O)C(=O)N[C@@H](Cc4c[nH]c5ccccc45)C(=O)N[C@H](C(=O)N[C@H](C(=O)O)C(C)C)[C@@H](C)O)C(C)C)NC(=O)[C@H](Cc4c[nH]cn4)NC(=O)[C@H](Cc4ccc(O)cc4)NC(=O)[C@@H]4CCCN4C(=O)[C@H](Cc4c[nH]c5ccccc45)NC(=O)[C@H](CCCCN)NC(=O)[C@H](CCCCN)NC(=O)[C@H](CCCNC(=N)N)NC(=O)[C@H](CSSC[C@H](NC(=O)CNC(=O)CNC1=O)C(=O)N[C@@H](CO)C(=O)N[C@@H](CCCCN)C(=O)N[C@@H](CC(=O)O)C(=O)N[C@@H](C)C(=O)N[C@@H](CC(=O)O)C(=O)N3)NC(=O)[C@H](CCC(=O)O)NC(=O)[C@H](CC(C)C)NC(=O)[C@H](Cc1c[nH]cn1)NC(=O)[C@H](C)NC2=O [JZTX-34, Jingzhaotoxin-34] (HELM PEPTIDE1{A.C.R.E.W.L.G.G.C.S.K.D.A.D.C.C.A.H.L.E.C.R.K.K.W.P.Y.H.C.V.W.D.W.T.V}$PEPTIDE1,PEPTIDE1,2:R3-16:R3|PEPTIDE1,PEPTIDE1,9:R3-21:R3|PEPTIDE1,PEPTIDE1,15:R3-29:R3$$$V2.0; N-terminus and C-terminus assumed)
[1]
  effect on Nav1.5 currents: No effects; also recorded: resistant
[2]
  effect on Nav1.6 currents: No effects
[3]; HEK293, 1 µM, read-out: inhibition of Nav1.7 D816R currents
  inhibition at 1 µM: 16.8 ± 4.6%
[3]; Hill fit, n = 5
  IC50: 19.5 µM
[3]; relative to WT Nav1.7
  decrease of binding affinity by D816R vs WT Nav1.7: about 32 fold
[4]; 0.5 mg/kg i.p.
  number of writhing: 38
[4]; 1 mg/kg i.p.
  number of writhing: 26
[4]; 2 mg/kg i.p.
  number of writhing: 11
